Assay results as given in patent publication US11834401B2, “Treating and preventing diseases by modulating cell mechanics” (THE JOHNS HOPKINS UNIVERSITY, priority 2013, dated 2023).

What was measured:
[1] = system: chicken non-muscle IIB (NMIIB) HMM; assay: In vitro motility assay (gliding actin filaments); format: biochemical; details: 500 nM each alone; 250 nM each in 1:1 ratio
Source text: (§1) The sedimentation assays were used to assess myosin II assembly in cells. The assembly assay used purified proteins (N-terminal 6×His tag (SEQ ID NO: 1), fused to the mCherry fluorophore, fused to the assembly domains of Dictyostelium myosin II (residues 1533-1823), human myosin IIA (residues 1722-1960), and human myosin IIB (residues 1729-1976), and 6×His-tagged (SEQ ID NO: 1) fused Dictyostelium 14-3-3). Purified chicken nonmuscle IIB heavy meromyosin (HMM) was used for in vitro motility.
The chicken non-muscle IIB (NMIIB) HMM construct (residues 1-1228, GenBank™ accession number M93676, no splice insert) was purified as previously described (Norstrom M F, et al., 2010). Motility assays were performed at 22° C. and imaged on Zeiss Axiovert 200 microscope with an Andor Luca camera. The flow cells were constructed using a glass slide, two pieces of double-sided tape, and nitrocellulose-coated coverslip. Flow cells were incubated with 0.05 mg/ml green fluorescent protein antibodies (MP Biomedicals, 0.05 mg/ml in assay buffer (AB) without DTT: 25 mM KCl, 25 mM Imidazole·HCl, pH 7.5, 1 mM K·EGTA, 4 mM MgCl2; 2 min incubation time), followed by a bovine serum albumin block (1 mg/ml in AB—as above with 10 mM DTT; 6 min incubation time). NMIIB was added to the flow cell at a concentration of 420 nM and incubated for 2 min. […]

[2] = molecular target: T1, Dictyostelium myosin II ADCT (Dictyostelium discoideum, UniProt P08799); assay: In vitro myosin assembly assay, with or without 14-3-3; format: biochemical; details: with or without purified 14-3-3
T1 construct: fused to the assembly domains of Dictyostelium myosin II (residues 1533-1823); 6xHis (N); mCherry (N); made in house; host or cells: E. coli BL-21 Star (DE3)
Source text: as §1
Bacterial expression plasmids coding for an N-terminal 6×His tag (SEQ ID NO: 1), fused to the mCherry fluorophore, fused to the assembly domains of Dictyostelium myosin II (residues 1533-1823), human myosin IIA (residues 1722-1960), or human myosin IIB (residues 1729-1976) were generated using standard cloning techniques.
Dictyostelium 14-3-3 was also expressed in bacteria as a 6×His-tagged (SEQ ID NO: 1) fusion protein (Zhou Q et al., 2010). Proteins were expressed in BL-21 Star™ (DE3) (Invitrogen) E. coli in LB shaking culture overnight at room temperature. […] Protein purity was verified by SDS-PAGE followed by Coomassie Blue staining, and concentration was quantified by UV absorbance using the calculated extinction coefficient for each protein's amino acid sequence. […]

[3] = system: myosin IIA (phosphor-Ser1943); assay: Western blot of phospho-myosin IIA; format: cell-based, human; details: HPDE or ASPC-1 cells
Method: Pellet was resuspended in 100 μl lysis buffer minus Triton X-100, and both pellet and supernatant fractions were heated to 100° C. for 3 min with RNaseA. Samples were incubated at 37° C. for 30 min and then heated to 100° C. in sample buffer for 5 min. Samples were loaded on a 15% SDS-polyacrylamide gel. Western blot analyses of phospho-myosin IIA was performed on whole cell lysates of cells treated as above in lysate buffer with 10 mM NaF.

ASPC-1 cells = assay: Retrograde actin flow (SiR-actin, lattice light-sheet); format: cell-based, human; details: 500 nM
Method: AsPC-1 cells were grown on collagen I-coated (50 μg/ml) 5-mm coverslips for 16 hrs and then treated with 100-nM SiR-Actin (Cytoskeleton, Inc) and […] Verapamil for 4 hrs in Leibovitz L-15 without phenol red media, with or without 4-HAP (500 nM). Coverslips were transferred to the imaging chamber of the Lattice Light-Sheet Microscope (LLSM) (Intelligent Imaging Innovations) containing fresh Leibovitz L-15 media without SiR-Actin and verapamil plus the corresponding 4-HAP concentration. Cells were imaged for 3-5 min at 2-3-sec intervals, 50-150 planes per 3D stack, with a Nikon CFI75 Apochromat 25×/1.1 water-dipping objective. Retrograde actin flow was measured using ImageJ (rsb.info.nih.gov/ij). Datasets were independently analyzed by multiple investigators.

T1 sequence (P08799 1533-1823): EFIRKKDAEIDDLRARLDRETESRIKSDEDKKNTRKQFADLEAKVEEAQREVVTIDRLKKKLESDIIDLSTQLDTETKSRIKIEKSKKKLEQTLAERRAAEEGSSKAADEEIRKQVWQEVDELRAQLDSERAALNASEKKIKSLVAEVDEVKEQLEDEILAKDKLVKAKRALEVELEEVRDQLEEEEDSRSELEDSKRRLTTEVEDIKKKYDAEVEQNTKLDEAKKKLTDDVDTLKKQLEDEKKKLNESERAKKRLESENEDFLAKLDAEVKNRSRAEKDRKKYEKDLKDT

Compound | non-muscle myosin IIB velocity (gliding filament velocity of actin filaments) [1] | in vitro assembly vs DMSO control [2] | myosin IIA phosphorylation (phosphor-Ser1943) [3] | detectability of actin flow (ASPC-1 cells) | reduction in retrograde actin flow velocity over untreated controls (ASPC-1 cells; cells in which flow could be measured) [%]
Nc1ccc(Cl)c(Cl)c1 [3,4-DCA, 3,4-dichloroaniline] | no significant effect | no significant change in in vitro assembly | – | – | –
CC(=O)c1ccc(O)cc1 [4-HAP, 4-hydroxyacetophenone] | no significant effect | no significant change in in vitro assembly | little effect on myosin IIA phosphorylation | undetectable levels of actin flow | 50
